From patent US11371077B2, “High throughput cell-based screening for aptamers” (MeiraGTx UK II Limited, priority 2016, dated 2022)

Experiments:
Type in all cases: cell-based
[1] = system: riboswitches with guanine aptamers; experiment: Dose responses of constructs with different aptamer based riboswitches (FIG. 1b); conditions: mammalian cells
Text: (§1) A truncated human beta-globin intron sequence was synthesized and inserted in the coding sequence of a firefly luciferase gene. A mutant human DHFR exon 2 was synthesized and inserted in the middle of this truncated beta-globin intron sequence using Golden gate cloning strategy. Aptamers including xpt-G/A^1, ydhl-G/A^2, yxj^3, add^4, gdg6-G/A^5 (citations for the aptamers are incorporated herein by reference) were synthesized as oligonucleotides (“oligos”) with 4 nucleotide overhang at the 5′ end that are complementary to two different BsaI sites individually (IDT), annealed and ligated to BsaI-digested mDHFR-Luci-acceptor vector.
3.5×10^4 HEK 293 cells were plated in a 96-well flat bottom plate the day before transfection. Plasmid DNA (500 ng) was added to a tube or a 96-well U-bottom plate. […] Then, 50 μL of this diluted transfection reagent was added to the DNA, mixed, and incubated at RT for 20 min. […]
24 hours after media change, plates were removed from the incubator, and equilibrated to RT for several minutes on a lab bench, then aspirated. […] Following a 5 min incubation at RT, luminescence was measured using a Tecan machine with 500 mSec read time. The luciferase activity was expressed as mean relative light unit (RLU)±S.D., and fold induction was calculated as the luciferase activity obtained with guanine treatment divided by luciferase activity obtained without guanine treatment.

[2] = system: xpt-G17 riboswitch; experiment: Luciferase reporter assay, xpt-G17 riboswitch, transfected HEK 293 cells; conditions: for response of guanine riboswitch xpt-G17 to compound (FIG. 1e): Prestwick library at 100 μM
Text: as §1
(§2) 3.5×10^4 HEK 293 cells were plated in a 96-well flat bottom plate the day before transfection. Plasmid DNA (500 ng) was added to a tube or a 96-well U-bottom plate. Separately, TransIT-293 reagent (Mirus; 1.4 μL) was added to 50 μL Opti-mem I media (Life Technologies), and allowed to sit for 5 minutes at room temperature (RT). Then, 50 μL of this diluted transfection reagent was added to the DNA, mixed, and incubated at RT for 20 min. Finally, 7 μL of this solution was added to a well of cells in the 96-well plate.
(§3) 24 hours after media change, plates were removed from the incubator, and equilibrated to RT for several minutes on a lab bench, then aspirated. Glo-lysis buffer (Promega, 100 μL, RT) was added, and the plates maintained at RT for at least 5 minutes. Then, the well contents were mixed by 50 μL trituration, and 20 μL of each sample was mixed with 20 μL of bright-glo reagent (Promega) that had been diluted to 10% in glo-lysis buffer. 96 wells were spaced on an opaque white 384-well plate. Following a 5 min incubation at RT, luminescence was measured using a Tecan machine with 500 mSec read time. The luciferase activity was expressed as mean relative light unit (RLU)±S.D., and fold induction was calculated as the luciferase activity obtained with guanine treatment divided by luciferase activity obtained without guanine treatment.

[3] = system: gdg6-A8 riboswitch; experiment: Luciferase reporter assay, gdg6-A8 riboswitch, transfected HEK 293 cells; conditions: Homo sapiens, HEK293; gdg6-A8 riboswitch; Prestwick library compounds at 100 μM; HEK 293
Text: (§4) Riboswitches were constructed as described in PCT/US2016/016234 (in particular Examples 3 to 6), incorporated herein by reference. A truncated human beta-globin intron sequence was synthesized and inserted in the coding sequence of a firefly luciferase gene. A mutant human DHFR exon 2 was synthesized and inserted in the middle of this truncated beta-globin intron sequence using Golden gate cloning strategy. Aptamers including xpt-G/A^1, ydhl-G/A^2, yxj^3, add^4, gdg6-G/A^5 (citations for the aptamers are incorporated herein by reference) were synthesized as oligonucleotides (“oligos”) with 4 nucleotide overhang at the 5′ end that are complementary to two different BsaI sites individually (IDT), annealed and ligated to BsaI-digested mDHFR-Luci-acceptor vector.
as §2, §3

[4] = system: yxj-A6 riboswitch; experiment: cells; conditions: Homo sapiens, HEK293, read-out: Fold Induction of luciferase activity
Text: as §1, §2
as §3, with “The luciferase activity was expressed as mean relative light unit (RLU)±S.D., and fold induction was calculated as the luciferase activity obtained with guanine treatment divided by luciferase activity obtained without guanine treatment.” left out

[5] = system: add-A6 riboswitch; experiment: cells; conditions: Homo sapiens, HEK293, read-out: Fold Induction of luciferase activity
Text: as §4, §2, §3

[6] = system: xpt-A8 riboswitch; experiment: cells; conditions: Homo sapiens, HEK293, read-out: Fold Induction of luciferase activity
Text: as §4, §2, §3

[7] = system: ydhl-A6 riboswitch; experiment: Luciferase reporter assay, ydhl-A6 riboswitch, transfected HEK 293 cells; conditions: Homo sapiens, HEK293, read-out: Fold Induction of luciferase activity, ydhl-A6 riboswitch; Prestwick library compounds at 100 μM; HEK 293
Text: as §1
(§5) 3.5×10^4 HEK 293 cells were plated in a 96-well flat bottom plate the day before transfection. Plasmid DNA (500 ng) was added to a tube or a 96-well U-bottom plate. […] Then, 50 μL of this diluted transfection reagent was added to the DNA, mixed, and incubated at RT for 20 min. Finally, 7 μL of this solution was added to a well of cells in the 96-well plate.
as §3

[8] = system: gdg6-G8 riboswitch; experiment: Luciferase reporter assay, gdg6-G8 riboswitch, transfected HEK 293 cells; conditions: Homo sapiens, HEK293; gdg6-G8 riboswitch; Prestwick library compounds at 100 μM; HEK 293
Text: as §4, §2, §3

[9] = system: add-G6 riboswitch; experiment: cells; conditions: Homo sapiens, HEK293, read-out: Fold Induction of luciferase activity
Text: as §1, §5
as §3, with “The luciferase activity was expressed as mean relative light unit (RLU)±S.D., and fold induction was calculated as the luciferase activity obtained with guanine treatment divided by luciferase activity obtained without guanine treatment.” left out

[10] = system: ydhl-G8 riboswitch; experiment: Luciferase reporter assay, ydhl-G8 riboswitch, transfected HEK 293 cells; conditions: Homo sapiens, HEK293, read-out: Fold Induction of luciferase activity
Text: as §1, §5, §3

`Nc1nc2c(ncn2[C@@H]2O[C@H](CO)[C@@H](O)[C@H]2O)c(=O)[nH]1` [guanosine] was tested, and the “response of riboswitches with guanine aptamers (reporter gene expression, FIG. 1b)” value [1] was “responds”.

`Nc1nc2nn[nH]c2c(=O)[nH]1` [8-Azaguanine] was tested, and the fold induction at 100 µM ([2]; Homo sapiens, HEK293, xpt-G17 riboswitch, Prestwick library compounds at 100 μM, HEK 293, preliminary screen) was 131, the “response of guanine riboswitch xpt-G17 to compound (FIG. 1e)” value ([2]; preliminary screen) was “responded” and the fold induction at 100 µM [3] was 306. For the same compound, the fold induction at 100 µM [4] was 55.6, the fold induction at 100 µM [5] was 22.1 and the fold induction at 100 µM [6] was 95.1. For the same compound, the fold induction at 100 µM [7] was 3.7, the fold induction at 100 µM [8] was 42.3 and the fold induction at 100 µM [9] was 47.9. The fold induction at 100 µM [10] was 35.6.

`Nc1nc2nc[nH]c2c(=O)[nH]1` [guanine] was tested, and the “response of guanine riboswitch xpt-G17 to compound (FIG. 1e)” value ([2]; preliminary screen) was “responded”, the “induction fold of luciferase reporter in response to guanine” value ([2]; xpt-G17, high concentration of guanine) was 2000 fold and the “response of riboswitches with guanine aptamers (reporter gene expression, FIG. 1b)” value [1] was “responds”.
